{
  "source": "patent US20060062846A1",
  "about": "“Alfuzosin tablets and synthesis” (Cimex Pharma AG, priority 2004, published 2006)",
  "key": {"[1]": {"test": "solubility in water", "type": "physicochemical"}, "[2]": {"conditions": "immediate-release tablet, cited from earlier work"}},
  "note": "Structures can show the parent of a compound that is named as a salt.",
  "data": [
    {"smiles": "COc1cc2nc(N(C)CCCNC(=O)C3CCCO3)nc(N)c2cc1OC", "note": "(racemic) [alfuzosin hydrochloride, (R,S)-N-(3-(4-amino-6,7-dimethoxy-2-quinazolinyl)methylamino) propyl) tetrahydro-2-furancarboxamide hydrochloride]", "values": [
      {"measurement": "solubility in water", "setting": "[1]", "value": "freely soluble in water"},
      {"measurement": "Peak plasma concentrations reached after administration (time)", "setting": "[2]", "value": "≤ 1", "unit": "h"},
      {"measurement": "inter-individual fluctuations in plasma concentrations", "setting": "[2]", "value": "sevenfold"},
      {"measurement": "Terminal elimination half-life", "setting": "[2]; range printed (1-10 h)", "value": "approximately 5 h"},
      {"measurement": "Bioavailability", "setting": "[2]; range printed (45-90%)", "value": 64, "unit": "%"}
    ]}
  ]
}
